Results reported in ChEMBL document CHEMBL1772979, “SAR studies on a series of N-benzyl-4-heteroaryl-1-(phenylsulfonyl)piperazine-2-carboxamides: potent inhibitors of the polymerase enzyme (NS5B) of the hepatitis C virus” (Bioorg Med Chem Lett, 2011).

Key:
Hepatitis C virus [1] = experiment: Antiviral activity against Hepatitis C virus expressing NS5B Y452H mutant by cell based replicon assay; type: functional, organism-based, Hepacivirus hominis
Hepatitis C virus [2] = experiment: Inhibition of Hepatitis C virus subtype 1b wild-type NS5B expressed in Escherichia coli BL21(DE3) assessed as decrease in [3H]-UTP incorporation using polyA template/biotin-labeled dT primer by SPA method
Hepatitis C virus [3] = experiment: Antiviral activity against Hepatitis C virus subtype 1a by cell based replicon assay; type: functional, organism-based, Hepacivirus hominis
Hepatitis C virus [4] = experiment: Antiviral activity against Hepatitis C virus subtype 1b by cell based replicon assay; type: functional, organism-based, Hepacivirus hominis, genotype 1b
[5] = Inhibition of Hepatitis C virus subtype 1a wild-type NS5B expressed in Escherichia coli BL21(DE3) assessed as decrease in [3H]-UTP incorporation using polyA template/biotin-labeled dT primer by SPA method
[6] = Hepatitis C virus, subtype 1a, read-out: EC50
[7] = Hepatitis C virus, genotype 1b, read-out: EC50

Compound | EC50 (Hepatitis C virus [3]; [6]) | EC50 (Hepatitis C virus [4]; [7]) | other results
CC[C@H](C)NC(=O)c1ccc(N2CCN(S(=O)(=O)c3ccc(OC(F)(F)F)cc3)[C@@H](C(=O)NCc3ccc(OC(F)(F)F)cc3)C2)nn1 | – | – | EC50 (Hepatitis C virus [1]): 400 nM; IC50 (Hepatitis C virus [2]): 13 nM
CCc1ccc(S(=O)(=O)N2CCN(c3cc(OC)nc(OC)n3)C[C@@H]2C(=O)NCc2ccc(OC)cc2)cc1 | 6200 nM | 900 nM | –
CCc1ccc(S(=O)(=O)N2CCN(c3cc(OC)nc(OC)n3)C[C@H]2C(=O)NCc2ccc(OC)cc2)cc1 | 14100 nM | 10100 nM | –
COc1cc(N2CCN(S(=O)(=O)c3cccc(-c4ccc(F)cc4)c3)C(C(=O)NCc3ccc(OC(F)(F)F)cc3)C2)nc(OC)n1 (racemic) | – | – | EC50 (Hepatitis C virus [3]): Not Active; EC50 (Hepatitis C virus [4]): Not Active
CCc1ccc(S(=O)(=O)N2CCN(c3cc(OC)nc(OC)n3)CC2C(=O)NCc2ccccc2)cc1 (racemic) | – | 8800 nM | EC50 (Hepatitis C virus [3]): Not Active
CNC(=O)c1ccc(N2CCN(S(=O)(=O)c3ccc(OC(F)(F)F)cc3)C(C(=O)NCc3ccc(OC(F)(F)F)cc3)C2)nn1 (racemic) | 330 nM | 20 nM | –
CCc1ccc(S(=O)(=O)N2CCN(c3cc(OC)nc(OC)n3)CC2C(=O)N(C)Cc2ccccc2)cc1 (racemic) | > 50000 nM | > 50000 nM | –
CCc1ccc(S(=O)(=O)N2CCN(c3cc(OC)nc(OC)n3)CC2C(=O)NCc2ccc(OC(F)(F)F)cc2)cc1 (racemic) | 9200 nM | 500 nM | –
CCc1ccc(S(=O)(=O)N2CCN(c3cc(OC)nc(OC)n3)CC2C(=O)NCc2ccccc2Cl)cc1 (racemic) | > 50000 nM | 3700 nM | –
CCc1ccc(S(=O)(=O)N2CCN(c3cc(OC)nc(OC)n3)CC2C(=O)NCc2ccc(Cl)cc2Cl)cc1 (racemic) | > 50000 nM | 2400 nM | –
CCc1ccc(S(=O)(=O)N2CCN(c3cc(OC)nc(OC)n3)CC2C(=O)NCc2ccc(OC)cc2OC)cc1 (racemic) | 12400 nM | 1200 nM | –
CCc1ccc(S(=O)(=O)N2CCN(c3cc(OC)nc(OC)n3)CC2C(=O)NCc2ccc(OC)c(OC)c2)cc1 (racemic) | 14600 nM | 900 nM | –
CCc1ccc(S(=O)(=O)N2CCN(c3cc(OC)nc(OC)n3)CC2C(=O)NCc2ccc(-c3cccs3)cc2)cc1 (racemic) | 47000 nM | 1200 nM | –
CCc1ccc(S(=O)(=O)N2CCN(c3cc(OC)nc(OC)n3)CC2C(=O)NCC2CC2)cc1 (racemic) | – | – | EC50 (Hepatitis C virus [3]): Not Active; EC50 (Hepatitis C virus [4]): Not Active
CCc1ccc(S(=O)(=O)N2CCN(c3cc(OC)nc(OC)n3)CC2C(=O)NCc2c(C)nn(-c3ccccc3)c2C)cc1 (racemic) | 20800 nM | 2100 nM | –
COc1cc(N2CCN(S(=O)(=O)C3CCCCC3)C(C(=O)NCc3ccc(OC(F)(F)F)cc3)C2)nc(OC)n1 (racemic) | – | – | EC50 (Hepatitis C virus [3]): Not Active; EC50 (Hepatitis C virus [4]): Not Active
COc1cc(N2CCN(S(=O)(=O)c3ccccc3F)C(C(=O)NCc3ccc(OC(F)(F)F)cc3)C2)nc(OC)n1 (racemic) | – | – | EC50 (Hepatitis C virus [3]): Not Active; EC50 (Hepatitis C virus [4]): Not Active
COc1cc(N2CCN(S(=O)(=O)c3cccc(C)c3)C(C(=O)NCc3ccc(OC(F)(F)F)cc3)C2)nc(OC)n1 (racemic) | 41000 nM | 1400 nM | –
COc1cc(N2CCN(S(=O)(=O)c3cccc(OC(F)(F)F)c3)C(C(=O)NCc3ccc(OC(F)(F)F)cc3)C2)nc(OC)n1 (racemic) | 58000 nM | 5300 nM | –
COc1cc(N2CCN(S(=O)(=O)c3ccc(-c4ccccc4)cc3)C(C(=O)NCc3ccc(OC(F)(F)F)cc3)C2)nc(OC)n1 (racemic) | 56000 nM | 2400 nM | –
COc1ccc(S(=O)(=O)N2CCN(c3cc(OC)nc(OC)n3)CC2C(=O)NCc2ccc(OC(F)(F)F)cc2)cc1 (racemic) | 64000 nM | 5900 nM | –
COc1cc(N2CCN(S(=O)(=O)c3ccc(F)cc3)C(C(=O)NCc3ccc(OC(F)(F)F)cc3)C2)nc(OC)n1 (racemic) | – | 8100 nM | EC50 (Hepatitis C virus [3]): Not Active
O=C(O)c1ccc(N2CCN(S(=O)(=O)c3ccc(OC(F)(F)F)cc3)C(C(=O)NCc3ccc(OC(F)(F)F)cc3)C2)nn1 (racemic) | – | – | EC50 (Hepatitis C virus [3]): Not Active; EC50 (Hepatitis C virus [4]): Not Active
O=C(O)c1cnc(N2CCN(S(=O)(=O)c3ccc(OC(F)(F)F)cc3)C(C(=O)NCc3ccc(OC(F)(F)F)cc3)C2)cn1 (racemic) | – | – | EC50 (Hepatitis C virus [3]): Not Active; EC50 (Hepatitis C virus [4]): Not Active
CCC(C)(C)NC(=O)c1ccc(N2CCN(S(=O)(=O)c3ccc(OC(F)(F)F)cc3)C(C(=O)NCc3ccc(OC(F)(F)F)cc3)C2)nn1 (racemic) | 460 nM | 43 nM | –

Continued, in another order:

EC50 (Hepatitis C virus [3]; [6]) | EC50 (Hepatitis C virus [4]; [7]) | Compound | other results
220 nM | 7 nM | CNC(=O)c1ccc(N2CCN(S(=O)(=O)c3ccc(OC(F)(F)F)cc3)[C@@H](C(=O)NCc3ccc(OC(F)(F)F)cc3)C2)nn1 | –
139 nM | 8 nM | CC(C)NC(=O)c1ccc(N2CCN(S(=O)(=O)c3ccc(OC(F)(F)F)cc3)[C@@H](C(=O)NCc3ccc(OC(F)(F)F)cc3)C2)nn1 | –
1600 nM | 140 nM | COC(=O)c1cnc(N2CCN(S(=O)(=O)c3ccc(OC(F)(F)F)cc3)C(C(=O)NCc3ccc(OC(F)(F)F)cc3)C2)cn1 (racemic) | –
2230 nM | 220 nM | CNC(=O)c1cnc(N2CCN(S(=O)(=O)c3ccc(OC(F)(F)F)cc3)C(C(=O)NCc3ccc(OC(F)(F)F)cc3)C2)cn1 (racemic) | –
20500 nM | 1700 nM | CCc1ccc(S(=O)(=O)N2CCN(c3cc(OC)nc(OC)n3)CC2C(=O)NCc2ccc(C)cc2)cc1 (racemic) | –
23000 nM | 2200 nM | CCc1ccc(S(=O)(=O)N2CCN(c3cc(OC)nc(OC)n3)CC2C(=O)NCc2ccc(OC)cc2)cc1 (racemic) | IC50 [5]: 12500 nM; IC50 (Hepatitis C virus [2]): 300 nM
30800 nM | 2100 nM | CCc1ccc(S(=O)(=O)N2CCN(c3cc(OC)nc(OC)n3)CC2C(=O)NCc2ccc(Cl)cc2)cc1 (racemic) | –
– | 20300 nM | COc1cc(N2CCN(S(=O)(=O)c3ccccc3)C(C(=O)NCc3ccc(OC(F)(F)F)cc3)C2)nc(OC)n1 (racemic) | EC50 (Hepatitis C virus [3]): Not Active
53000 nM | 6200 nM | COc1cc(N2CCN(S(=O)(=O)c3cccc(C(F)(F)F)c3)C(C(=O)NCc3ccc(OC(F)(F)F)cc3)C2)nc(OC)n1 (racemic) | –
8100 nM | 700 nM | COc1cc(N2CCN(S(=O)(=O)c3ccc(OC(F)(F)F)cc3)C(C(=O)NCc3ccc(OC(F)(F)F)cc3)C2)nc(OC)n1 (racemic) | –
13000 nM | 1200 nM | COc1cc(N2CCN(S(=O)(=O)c3ccc(C(F)(F)F)cc3)C(C(=O)NCc3ccc(OC(F)(F)F)cc3)C2)nc(OC)n1 (racemic) | –
13000 nM | 1100 nM | COc1cc(N2CCN(S(=O)(=O)c3ccc(OC)c(OC)c3)C(C(=O)NCc3ccc(OC(F)(F)F)cc3)C2)nc(OC)n1 (racemic) | –
3900 nM | 380 nM | COC(=O)c1ccc(N2CCN(S(=O)(=O)c3ccc(OC(F)(F)F)cc3)C(C(=O)NCc3ccc(OC(F)(F)F)cc3)C2)nn1 (racemic) | –
